Measurements taken from patent US20200147039A1, “COMPOUNDS USEFUL IN INHIBITING HUMAN TREFOIL FACTOR 3” (NATIONAL UNIVERSITY OF SINGAPORE, priority 2017, published 2020).

Tests used:
MCF-7 = assay: AlamarBlue cell viability assay, MCF7; assay type: cell-based, human
Excerpt: (§1) (A) Inhibitory concentration 50% (IC50) values for compound 43 in the MC cell lines are tabulated, using an AlamarBlue™ cell viability assay as previously described in Pandey V et al., Breast Cancer Res. 2014; 16(5):429. (B) Measured dose-dependent manner effect of compound 43 on the viability of MC cells (left-side, TFF3-high and right, TFF3-low) using AlamarBlue™ viability assay as previously described (ibid). (C) Apoptotic cell death of mammary carcinoma cell lines measured after treatment with 10 μM compound 43 using flow cytometry analysis at 24 hour as described previously in Keerthy H K et al., PloS one. 2014; 9(9):e107118. Annexin V-FITC staining is indicated on the X-axis and PI staining on the Y-axis. […] Acquisition of Annexin V and PI data were represented as percentage (%) in each quadrant. Note: CM, conditioned media; MCF10A and MCF12A, non-transformed immortalized-mammary epithelial cell line. Points are mean of triplicate experiments; bars, ±SD. Statistical significance was assessed by using an unpaired two-tailed Student's t test (P<0.05 was considered as significant) using GraphPad Prism5. Columns are mean of triplicate experiments; bars, ±SD. **P<0.001, *P<0.05.
(§2) The human immortalized mammary epithelial cell lines, MCF10A, and MCF12A; and immortalized hepatocellular epithelial cell line, LO2 were obtained from the American Type Culture Collection (ATCC, Rockville, Md.) and were cultured as per ATCC propagation instructions. MC cell lines, MCF7, T47D, BT474, BT20, MDA-MB-361, MDA-MB-436, MDA-MB-468, and MDA-MB-231; endometrial carcinoma cell lines, Ishikawa, ECC1, RL95-2 and AN3; hepatocellular carcinoma cell lines, Hep3B, H2P, and H2M; colon carcinoma cell lines, DLD-1, and Caco-2; and prostate carcinoma cell lines, PC3, LNCaP, and DU145 were obtained from the American Type Culture Collection (ATCC, Rockville, Md.). Pancreatic carcinoma cell lines, AsPC-1 and BxPC-3; Lung carcinoma cell lines, HCC-827, NCI-H1975, HCC-4006, PC-14, and NCI-H1299; and Thyroid carcinoma cell lines HTH83, CAL62, T238, and OGK-M were obtained from Prof. H. Phillip Koeffler's laboratory at The Cancer Science Institute of Singapore, National University of Singapore (NUS). Gastric carcinoma cell lines, AGS, MKN-28, MKN-45, and A2-528 were obtained from Prof. Yoshiaki Ito's laboratory at The Cancer Science Institute of Singapore, NUS. All cell lines were cultured as per ATCC propagation instructions.
The above synthesised compounds were initially evaluated against a range of carcinoma cells using an AlamarBlue™ cell viability assay (using the protocol discussed above). The tested compounds were generally efficacious at reducing the viability of various carcinoma cells compared to vehicle (DMSO) treated cells. Table 8 provides selected IC50 data for certain of the compounds synthesised herein against MCF-7.
In table 9 IC50 values of compound 43 compound library in several cancer cell lines are tabulated, using an AlamarBlue® cell viability assay as previously described in Pandey V et al., Breast Cancer Res. 2014; 16(5):429. Statistical analysis was assessed by using GraphPad Prism5. Note: NV, no value.

HCC827 = assay: AlamarBlue cell viability assay, HCC827; assay type: cell-based; settings: Homo sapiens, Lung
Procedure: as §2, with “Yoshiaki Ito's laboratory at The Cancer Science Institute of Singapore, NUS. All cell lines were cultured as per ATCC propagation instructions.” left out
(§3) In table 9 IC50 values of compound 43 compound library in several cancer cell lines are tabulated, using an AlamarBlue® cell viability assay as previously described in Pandey V et al., Breast Cancer Res. 2014; 16(5):429. Statistical analysis was assessed by using GraphPad Prism5. […]

MDA-MB-436 = assay: AlamarBlue cell viability assay, MDA-MB-436; assay type: cell-based; settings: Homo sapiens, Mammary
Excerpt: as §1, with “Columns are mean of triplicate experiments; bars, ±SD. **P<0.001, *P<0.05.” left out
as §3

BxPC-3 = assay: AlamarBlue cell viability assay, BxPC-3; assay type: cell-based; settings: Homo sapiens, Pancreatic
Procedure: as §2, with “Yoshiaki Ito's laboratory at The Cancer Science Institute of Singapore, NUS. All cell lines were cultured as per ATCC propagation instructions.” left out
as §3

## Cc1cc(-c2ccc(C3C(C#N)=C(N)Oc4c3c(=O)oc3ccccc43)cc2)cnc1F (stereo not drawn) [Compound 43, 2-Amino-4-(4-(6-fluoro-5-methylpyridin-3-yl)phenyl)-5-oxo-4H,5H-pyrano[3,2-c]chromene-3-carbonitrile]
MCF-7; Homo sapiens, MCF7, MCF-7, AlamarBlue cell viability (Table 8)
  IC50: 3.21 µM
MCF-7; Homo sapiens, MCF7, Mammary, MCF7
  IC50: 3.21 µM
MCF-7; MCF-7, AlamarBlue cell viability (Table 8)
  IC50: 4.51 µM
HCC827
  IC50: 0.93 µM
MDA-MB-436
  IC50: 396 µM
BxPC-3
  IC50: 2.56 µM
